Assay results taken from patent US20230167088A1, “1-PYRAZINYLPYRAZOLYL-3-OXYALKYL ACIDS AND THEIR DERIVATIVES, AND THEIR USE FOR CONTROL OF UNDESIRED PLANT GROWTH” (BAYER AKTIENGESELLSCHAFT, priority 2020, published 2023).

Tests used:
ALOMY [1] = test: Herbicidal post-emergence action 1a (greenhouse pots, visual rating); assay type: in vivo, Alopecurus myosuroides; conditions: rated visually about 3 weeks after treatment, 100% = plants have died, 0% = like control plants
Outline: (§1)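 Visual scoring versus untreated plants (100% = plants dead, 0% = as control) followed roughly 3 weeks in the greenhouse after treatment. Plants grown in sandy loam pots had been sprayed on green parts at the one-leaf stage, 2–3 weeks post-sowing, with aqueous WP/EC preparations containing 0.5% additive, 600 l/ha, at 320 and/or 80 g/ha.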

PHBPU = test: as above; assay type: in vivo, Pharbitis purpurea; conditions: visual rating about 3 weeks after treatment
Outline: as §1

ALOMY [2] = test: Herbicidal pre-emergence action 2a (greenhouse pots, visual scoring); assay type: in vivo, Alopecurus myosuroides; conditions: dosage 320 g/ha, visual scoring after about 3 weeks
Outline: (§2)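 Weed and crop seeds placed in pots and covered with soil; aqueous suspension or emulsion of WP/EC formulation applied to the soil surface before emergence (600 l/ha, 0.5% additive, 320 and/or 80 g/ha). Pots kept in the greenhouse about 3 weeks; visual percentage scoring.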

POLCO = test: as above; assay type: in vivo, Polygonum convolvulus; conditions: dosage 320 g/ha, visual scoring after about 3 weeks vs untreated controls
Outline: as §2

harmful plants = test: Herbicidal pre-emergence action 2a, summary across species; assay type: in vivo; conditions: Tables B1 to B15 (320 g/ha and/or 80 g/ha)
Outline: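 Pre-emergence greenhouse test: WP or EC formulations sprayed onto soil covering sown weed and crop seeds, 600 l/ha water with 0.5% additive, at 320 g/ha and/or 80 g/ha. Damage scored visually after about 3 weeks as % versus untreated control (100% = plants dead).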

AMARE = test: Herbicidal pre-emergence action 2b (doubly sown, 1280 g/ha); assay type: in vivo, Amaranthus retroflexus; conditions: doubly sown pots, dosage 1280 g/ha, visual scoring after about 3 weeks
Outline: (§3)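 Pre-emergence soil-surface spray (WP/EC formulation, 0.5% additive, 600 L/ha water) onto covered seeds in sandy loam, doubly sown per pot. Greenhouse ~3 wk; % effect scored visually against untreated pots.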

DIGSA = test: Herbicidal post-emergence action 1a (greenhouse pots, visual rating); assay type: in vivo, Digitaria sanguinalis; conditions: Dosage 320 g/ha; rated visually about 3 weeks after treatment; 100% = plants have died, 0% = like control plants
Outline: as §1

STEME [3] = test: as above; assay type: in vivo, Stellaria media; conditions: rated visually about 3 weeks after treatment, 100% = plants have died, 0% = like control plants
Outline: as §1

STEME [4] = test: Herbicidal post-emergence action 1b (twin sowing, 1280 g/ha); assay type: in vivo, Stellaria media; conditions: dosage 1280 g/ha, visual rating about 3 weeks after treatment
Outline: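 Visual % activity vs untreated controls, ~3 wk after treatment (100% = dead, 0% = like control). Plants: one mono- plus one dicot weed species per pot, sandy loam, greenhouse; sprayed at one-leaf stage (2–3 wk post-sowing). Aqueous WP/EC, 0.5% additive, 600 L/ha water.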

STEME [5] = test: Herbicidal pre-emergence action 2b (doubly sown, 1280 g/ha); assay type: in vivo, Stellaria media; conditions: doubly sown pots, dosage 1280 g/ha, visual scoring after about 3 weeks
Outline: as §3

COC(=O)C(C)Oc1nn(-c2cnccn2)c(-c2ccc(F)nc2)c1Br (racemic) [Example I-12]
Post-emergence action against ALOMY in % (ALOMY [1]; Dosage 80 g/ha): 90% | Post-emergence action against ALOMY in % (ALOMY [1]; Dosage 320 g/ha): 90% | Post-emergence action against PHBPU in % (PHBPU; dosage 80 g/ha): 80% | Post-emergence action against PHBPU in % (PHBPU; dosage 320 g/ha): 90% | Pre-emergence action against ALOMY in % (ALOMY [2]): 100% | Pre-emergence action against POLCO in % (POLCO): 90% | herbicidal efficacy against harmful plants in the case of pre-emergence treatment (in words) (harmful plants): good herbicidal efficacy | Pre-emergence action at 1280 g/ha against AMARE in % (AMARE): 100% | Post-emergence action against DIGSA in % (DIGSA): 80% | Post-emergence action against STEME in % (STEME [3]; Dosage 80 g/ha): 80% | Post-emergence action against STEME in % (STEME [3]; Dosage 320 g/ha): 90% | Post-emergence action at 1280 g/ha against STEME in % (STEME [4]): 100% | Pre-emergence action at 1280 g/ha against STEME in % (STEME [5]): 100%

CCOC(=O)COc1nn(-c2cnccn2)c(-c2ccccc2)c1Br [Example I-01]
Post-emergence action against ALOMY in % (ALOMY [1]; Dosage 320 g/ha): 90% | Post-emergence action against PHBPU in % (PHBPU; dosage 80 g/ha): 80% | Post-emergence action against PHBPU in % (PHBPU; dosage 320 g/ha): 80% | Pre-emergence action against ALOMY in % (ALOMY [2]): 80% | Pre-emergence action against POLCO in % (POLCO): 80% | herbicidal efficacy against harmful plants in the case of pre-emergence treatment (in words) (harmful plants): good herbicidal efficacy | Pre-emergence action at 1280 g/ha against AMARE in % (AMARE): 100% | Post-emergence action against DIGSA in % (DIGSA): 80% | Post-emergence action against STEME in % (STEME [3]; Dosage 320 g/ha): 90% | Post-emergence action at 1280 g/ha against STEME in % (STEME [4]): 100% | Pre-emergence action at 1280 g/ha against STEME in % (STEME [5]): 100%
